# Patent US20220323441A1, “THERAPEUTIC FOR GOUT OR HYPERURICEMIA” (Nippon Chemiphar Co., Ltd., priority 2019, published 2022)
# Where two headings read alike, the source gives them in different places.
# What was measured:
# serum uric acid level [1] = conditions: febuxostat 40 mg; about 15 hours after the administration; cited from earlier work
# serum uric acid level [2] = experiment: Example 1, action of lowering serum uric acid level in healthy adult males; assay type: in vivo
# Description: The effect of gradually lowering the blood uric acid level which is achieved by administering the pharmaceutical composition provided by the present invention may be confirmed, for example, when a maximum rate of decrease in a blood uric acid level on the first day of the administration ([(pre-administration uric acid level−minimum post-administration uric acid level on first day of administration)/pre-administration uric acid level]×100) is about 35% or less (for example, 1 to 35% decrease, 10 to 30% decrease, 10 to 25% decrease, 10 to 20% decrease, or 15 to 25% decrease); and/or the maximum rate of decrease in a blood uric acid level on the seventh day of the administration ([(pre-administration uric acid level−minimum post-administration uric acid level on the seventh day of administration)/pre-administration uric acid level]×100) is about 55% or less (for example, 1 to 55% decrease, 10 to 50% decrease, 15 to 45% decrease, 20 to 45% decrease, 20 to 40% decrease, or 20 to 35% decrease), the maximum rates of decrease being determined by continuously administering the pharmaceutical composition provided by the present invention to a healthy adult (for example, a male) for 7 days and measuring the blood uric acid levels before and after the administration.
# The blood uric acid level (blood uric acid concentration) may be measured by a known uricase-peroxidase method.
# 80 mg of Compound 14 was repeatedly administered to 6 healthy adult males once daily for 7 days using solid dispersion capsules of Formulation Example 1, and the action of lowering a serum uric acid level was examined. For comparative reference, the results are shown in FIG. 9 together with the result of a case described in Non Patent Literature 3 in which febuxostat (40 mg) was used.
# [3] = Particle size distribution of amorphous Compound 14 (laser diffraction); assay type: physicochemical; conditions: amorphous Compound 14, spray dried; dispersed in 0.2% Aerosol OT aqueous solution
# Experimental: A volume average particle size (D50) of the obtained amorphous Compound 14 was measured with a Shimadzu laser diffraction type particle size distribution measuring device SALD-2200 using a dispersion obtained by adding about 2 mg of a sample to a 0.2% Aerosol OT aqueous solution and irradiating the solution with ultrasonic waves for 30 seconds for dispersion. Shimadzu WingSALD-2200 version 1.02 software was used for data collection and analysis. […] The volume average particle size (D50) of amorphous Compound 14 obtained from the particle size distribution was 2.949 μm.
smiles,measurement,setting,value
Cc1nc(-c2ccc(OCC(C)C)c(C#N)c2)sc1C(=O)O [febuxostat],maximum rate of decrease in a blood uric acid level on the first day of the administration,serum uric acid level [1],about 35%
"N#Cc1cc(-c2nc3c(O)ncnc3s2)ccc1Oc1ccccc1 [Compound 14, 2-(3-Cyano-4-phenoxyphenyl)-7-hydroxythiazolo[5,4-d]pyrimidine]",course of serum uric acid level throughout the administration period,"serum uric acid level [2]; 20 mg once daily for 7 days, solid dispersion capsules of Formulation Example 1",gradually decreased over time
same,course of serum uric acid level throughout the administration period,"serum uric acid level [2]; 40 mg once daily for 7 days, capsules containing micronized Compound 14",gradually decreased over time
same,course of serum uric acid level throughout the administration period,"serum uric acid level [2]; 80 mg once daily for 7 days, solid dispersion capsules of Formulation Example 1",gradually decreased over time
same,maximum rate of decrease in a blood uric acid level on the seventh day,"serum uric acid level [2]; 80 mg once daily for 7 days, solid dispersion capsules of Formulation Example 1, about 8 hours after the administration",about 30%
same,maximum rate of decrease in a blood uric acid level on the first day of the administration,"serum uric acid level [2]; 80 mg once daily, solid dispersion capsules of Formulation Example 1, 6 healthy adult males, at 12 hours after the administration",about 17%
same,volume average particle size (D50),[3],2.949 μm
